The target in the experiment is T1, PPARG-LBD (Homo sapiens, UniProt P37231).
T1 construct: purchased ThermoFisher
T1 sequence (P37231 238-503 limits assumed): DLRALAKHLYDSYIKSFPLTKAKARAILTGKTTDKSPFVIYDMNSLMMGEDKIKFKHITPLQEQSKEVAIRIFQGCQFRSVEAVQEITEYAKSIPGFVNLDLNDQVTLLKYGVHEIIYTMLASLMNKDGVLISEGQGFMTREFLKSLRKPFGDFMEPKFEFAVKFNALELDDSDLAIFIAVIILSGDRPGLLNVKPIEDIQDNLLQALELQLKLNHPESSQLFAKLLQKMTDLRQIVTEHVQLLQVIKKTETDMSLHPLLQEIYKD
Description: Biochemical LanthaScreen TR-FRET PPAR gamma corepressor assay (PPARG-LBD / NCOR2 peptide). To be noted: 2 h, read-out: Efficacy. How it is done:
Biochemical Assay for Determining Inverse Agonist Activity of Compounds
A biochemical interaction assay measuring the ligand-dependent changes in interactions between the PPARG-LBD and a fluorescent peptide from the corepressor, NCOR2 (Smrt ID2, ThermoFisher), was performed to evaluate inverse agonist activity.
This assay was performed according to the manufacturers protocol (LanthaScreen TR-FRET PPAR gamma Corepressor Assay, ThermoFisher). […] After incubation the FRET signal was measured using an PHERAstar Plus Plate Reader (BMG). Every sample was tested in duplicate and mean values were used to calculate the EC50 values and efficacies of the compounds. A model of nonlinear regression curve fit was used for calculation.
(In TR-FRET formats the signal depends on donor and acceptor labels being close together.)

Experimental findings from US20240109850A1, “Covalent PPARG inverse-agonists” (Bayer Aktiengesellschaft, priority 2022, published 2024) are described below.

Each structure is given as a SMILES string.

As to `C=CC(=O)Nc1ccc2oc(-c3ccc(CC)cc3)nc2c1` [Example 24, N-[2-(4-Ethylphenyl)-1,3-benzoxazol-5-yl]prop-2-enamide], the Emax is 0%.
